Drawing on patent US11078228B2, “Ectonucleotidase inhibitors and methods of use thereof” (Calithera Biosciences, Inc., priority 2018, dated 2021), this text covers IC50 for 22 compounds.

As usually defined, the IC50 is the concentration at which inhibition is half-maximal.

In the test the target is recombinant CD73 (Homo sapiens (Human), UniProt P21589). Nature of the test: Assay 2: Inhibition of the CD73 enzyme in vitro (0.05 nM CD73, 1 hour 37° C., Malachite Green). As to conditions: 0.05 nM CD73, 50 μM AMP, 1 hour at 37° C. Format: biochemical. The procedure: For measurements of soluble CD73 enzyme activity, recombinant CD73 was obtained from R&D Systems, Cat. No. 5795-EN-010. […] Reactions were allowed to proceed for 1 hour at 37° C. before the addition of 100 μL Malachite Green (Cell Signaling Technology, Cat. No. 12776). After 5 minutes at room temperature, absorbance at 630 nm was determined on a microplate spectrophotometer. The concentration of inorganic phosphate was determined using a phosphate standard curve.
recombinant CD73, sequence (P21589 27-547): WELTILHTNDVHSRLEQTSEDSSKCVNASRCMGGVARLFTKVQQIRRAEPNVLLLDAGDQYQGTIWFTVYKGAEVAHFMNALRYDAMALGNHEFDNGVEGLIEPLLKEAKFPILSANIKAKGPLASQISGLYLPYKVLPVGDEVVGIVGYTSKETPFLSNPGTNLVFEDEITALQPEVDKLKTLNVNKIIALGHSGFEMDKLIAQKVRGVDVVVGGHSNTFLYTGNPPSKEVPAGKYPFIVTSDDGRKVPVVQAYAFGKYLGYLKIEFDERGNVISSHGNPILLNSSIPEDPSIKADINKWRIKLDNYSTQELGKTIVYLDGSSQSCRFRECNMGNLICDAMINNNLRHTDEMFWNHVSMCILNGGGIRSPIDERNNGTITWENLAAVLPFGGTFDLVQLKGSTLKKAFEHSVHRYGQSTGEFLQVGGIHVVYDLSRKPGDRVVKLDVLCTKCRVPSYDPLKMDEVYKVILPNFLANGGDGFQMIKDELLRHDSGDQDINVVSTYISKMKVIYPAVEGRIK
As to `C#C[C@@]1(O)[C@@H](COC(Cc2ccc(N3CCCN(CCO)C3=O)cc2)(C(=O)O)C(=O)O)O[C@@H](n2cnc3c(NCC4CC4)nc(Cl)nc32)[C@@H]1O` [Example 138, 2-(((2R,3S,4R,5R)-5-(2-chloro-6-((cyclopropylmethyl)amino)-9H-purin-9-yl)-3-ethynyl-3,4-dihydroxytetrahydrofuran-2-yl)methoxy)-2-(4-(3-(2-hydroxyethyl)-2-oxotetrahydropyrimidin-1 (2H)-yl)benzyl)malonic acid], the IC50 was 0.15 nM.

As for `C#C[C@@]1(O)[C@@H](COC(Cc2ccccc2)(C(=O)O)C(=O)O)O[C@@H](n2cnc3c(NCCO)nc(Cl)nc32)[C@@H]1O` [Example 97, 2-benzyl-2-(((2R,3S,4R,5R)-5-(2-chloro-6-((2-hydroxyethyl)amino)-9H-purin-9-yl)-3-ethynyl-3,4-dihydroxytetrahydrofuran-2-yl)methoxy)malonic acid], the IC50 is 2 nM. Consider `C#C[C@@]1(O)[C@@H](COC(Cc2ccccc2)(C(=O)O)C(=O)O)O[C@@H](n2cnc3c(N(CCO)C4CC4)nc(Cl)nc32)[C@@H]1O` [Example 99, 2-benzyl-2-(((2R,3S,4R,5R)-5-(2-chloro-6-(cyclopropyl(2-hydroxyethyl)amino)-9H-purin-9-yl)-3-ethynyl-3,4-dihydroxytetrahydrofuran-2-yl)methoxy)malonic acid], for which the concentration for half-maximal inhibition (IC50) was 6 nM. With `C#C[C@@]1(O)[C@@H](COC(Cc2ccc(N3CCCN(C)C3=O)cc2)(C(=O)O)C(=O)O)O[C@@H](n2cnc3c(NC(C)C)nc(Cl)nc32)[C@@H]1O` [Example 151, 2-(((2R,3S,4R,5R)-5-(2-chloro-6-(isopropylamino)-9H-purin-9-yl)-3-ethynyl-3,4-dihydroxytetrahydrofuran-2-yl)methoxy)-2-(4-(3-methyl-2-oxotetrahydropyrimidin-1(2H)-yl)benzyl)malonic acid] the figure was 0.25 nM; with `C#C[C@@]1(O)[C@@H](COC(Cc2ccc(N3CCCNC3=O)cc2)(C(=O)O)C(=O)O)O[C@@H](n2cnc3c(NCc4ccc(OC)cc4OC)cc(Cl)nc32)[C@@H]1O` [Example 156, 2-(((2R,3S,4R,5R)-5-(5-chloro-7-((2,4-dimethoxybenzyl)amino)-3H-imidazo[4,5-b]pyridin-3-yl)-3-ethynyl-3,4-dihydroxytetrahydrofuran-2-yl)methoxy)-2-(4-(2-oxotetrahydropyrimidin-1 (2H)-yl)benzyl)malonic acid], 0.14 nM; with `C#C[C@@]1(O)[C@@H](COC(Cc2ccccc2)(C(=O)O)C(=O)O)O[C@@H](n2cnc3c(N(C)C4CC4)nc(Cl)nc32)[C@@H]1O` [Example 105, 2-benzyl-2-(((2R,3S,4R,5R)-5-(2-chloro-6-(cyclopropyl(methyl)amino)-9H-purin-9-yl)-3-ethynyl-3,4-dihydroxytetrahydrofuran-2-yl)methoxy)malonic acid], 2 nM. With `C#C[C@@]1(O)[C@@H](COC(Cc2ccsc2)(C(=O)O)C(=O)O)O[C@@H](n2cnc3c(NC(C)C)nc(Cl)nc32)[C@@H]1O` [Example 33, 2-(((2R,3S,4R,5R)-5-(2-chloro-6-(isopropylamino)-9H-purin-9-yl)-3-ethynyl-3,4-dihydroxytetrahydrofuran-2-yl)methoxy)-2-(thiophen-3-ylmethyl)malonic acid] the figure was 2 nM; with `C#C[C@@]1(O)[C@@H](CO[C@@H](Cc2ccc(N3CCCNC3=O)cc2)C(=O)O)O[C@@H](n2cnc3c(N)nc(Cl)nc32)[C@@H]1O` (single isomer, unassigned) [Example 167], 139 nM. In the case of `C#C[C@@]1(O)[C@@H](COC(Cc2ccccc2)(C(=O)O)C(=O)O)O[C@@H](n2cnc3c(N4CC[C@H](CO)C4)nc(Cl)nc32)[C@@H]1O` [Example 101, 2-benzyl-2-(((2R,3S,4R,5R)-5-(2-chloro-6-((S)-3-(hydroxymethyl)-pyrrolidin-1-yl)-9H-purin-9-yl)-3-ethynyl-3,4-dihydroxytetrahydrofuran-2-yl)methoxy)malonic acid] it was 1 nM. With `C#C[C@@]1(O)[C@@H](COC(Cc2ccccc2)(C(=O)O)C(=O)O)O[C@@H](n2cnc3c(N4CCC4)nc(Cl)nc32)[C@@H]1O` [Example 88, 2-(((2R,3S,4R,5R)-5-(6-(azetidin-1-yl)-2-chloro-9H-purin-9-yl)-3-ethynyl-3,4-dihydroxytetrahydrofuran-2-yl)methoxy)-2-benzylmalonic acid], the half-inhibitory concentration (IC50) stood at 1.2 nM. Turning to `C#C[C@@]1(O)[C@@H](COC(Cc2ccccc2)(C(=O)O)C(=O)O)O[C@@H](n2cnc3c(N4CC[C@@H](O)C4)nc(Cl)nc32)[C@@H]1O` [Example 100, 2-benzyl-2-(((2R,3S,4R,5R)-5-(2-chloro-6-((R)-3-hydroxypyrrolidin-1-yl)-9H-purin-9-yl)-3-ethynyl-3,4-dihydroxytetrahydrofuran-2-yl)methoxy)malonic acid], the half-inhibitory concentration (IC50) turned out to be 2 nM. In the case of `C#C[C@@]1(O)[C@@H](COC(Cc2ccccc2)(C(=O)O)C(=O)O)O[C@@H](n2cnc3c(N4CC[C@H](O)C4)nc(Cl)nc32)[C@@H]1O` [Example 65, 2-benzyl-2-(((2R,3S,4R,5R)-5-(2-chloro-6-((S)-3-hydroxypyrrolidin-1-yl)-9H-purin-9-yl)-3-ethynyl-3,4-dihydroxytetrahydrofuran-2-yl)methoxy)malonic acid] it was 1 nM; in that of `CC[C@@]1(O)[C@@H](COC(Cc2ccccc2)(C(=O)O)C(=O)O)O[C@@H](n2cnc3c(N)nc(Cl)nc32)[C@@H]1O` [Example 56, 2-(((2R,3S,4R,5R)-5-(6-amino-2-chloro-9H-purin-9-yl)-3-ethyl-3,4-dihydroxytetrahydrofuran-2-yl)methoxy)-2-benzylmalonic acid], over 200 nM; in that of `C#C[C@@]1(O)[C@@H](COC(Cc2ccc(-c3cccnc3OC)cc2)(C(=O)O)C(=O)O)O[C@@H](n2cnc3c(N)nc(Cl)nc32)[C@@H]1O` [Example 22, 2-(((2R,3S,4R,5R)-5-(6-amino-2-chloro-9H-purin-9-yl)-3-ethynyl-3,4-dihydroxytetrahydrofuran-2-yl)methoxy)-2-(4-(2-methoxypyridin-3-yl)benzyl)malonic acid], 0.3 nM. With `C#C[C@@]1(O)[C@@H](COC(Cc2ccn[nH]2)(C(=O)O)C(=O)O)O[C@@H](n2cnc3c(N)nc(Cl)nc32)[C@@H]1O` [Example 158, 2-((1H-pyrazol-5-yl)methyl)-2-(((2R,3S,4R,5R)-5-(6-amino-2-chloro-9H-purin-9-yl)-3-ethynyl-3,4-dihydroxytetrahydrofuran-2-yl)methoxy)malonic acid], the half-maximal inhibitory concentration (IC50) came out at 8 nM. For `C#C[C@@]1(O)[C@@H](COC(Cc2ccc(N3CCCNC3=O)cc2)(C(=O)O)C(=O)O)O[C@@H](n2nc(C)c3ccc(Cl)nc32)[C@@H]1O` [Example 131, 2-(((2R,3S,4R,5R)-5-(6-chloro-3-methyl-1H-pyrazolo[3,4-b]pyridin-1-yl)-3-ethynyl-3,4-dihydroxytetrahydrofuran-2-yl)methoxy)-2-(4-(2-oxotetrahydropyrimidin-1(2H)-yl)benzyl)malonic acid], the IC50 is over 100 nM.

Take `C#C[C@@]1(O)[C@@H](COC(Cc2ccccc2)(C(=O)O)C(=O)O)O[C@@H](n2cnc3c(N(C)C(C)C)nc(Cl)nc32)[C@@H]1O` [Example 82, 2-benzyl-2-(((2R,3S,4R,5R)-5-(2-chloro-6-(isopropyl(methyl)amino)-9H-purin-9-yl)-3-ethynyl-3,4-dihydroxytetrahydrofuran-2-yl)methoxy)malonic acid]: the IC50 amounted to 2 nM. Regarding `C#C[C@@]1(O)[C@@H](COC(Cc2ccccc2)(C(=O)O)C(=O)OCC)O[C@@H](n2cnc3c(N)nc(C(N)=O)nc32)[C@@H]1O` (stereo partly drawn) [Example 121, 2-(((2R,3S,4R,5R)-5-(6-amino-2-carbamoyl-9H-purin-9-yl)-3-ethynyl-3,4-dihydroxytetrahydrofuran-2-yl)methoxy)-2-benzyl-3-ethoxy-3-oxopropanoic acid], the IC50 was found to be 1710 nM. Take `C#C[C@@]1(O)[C@@H](COC(Cc2ccccc2)(C(=O)O)C(=O)O)O[C@@H](n2cnc3c(N(C)CCOC)nc(Cl)nc32)[C@@H]1O` [Example 39, 2-benzyl-2-(((2R,3S,4R,5R)-5-(2-chloro-6-((2-methoxyethyl)-(methyl)amino)-9H-purin-9-yl)-3-ethynyl-3,4-dihydroxytetrahydrofuran-2-yl)methoxy)malonic acid]: the half-inhibitory concentration (IC50) worked out at 3 nM. On to `C#C[C@@]1(O)[C@@H](COC(Cc2ccccc2)(C(=O)O)C(=O)O)O[C@@H](n2cnc3c(NC(C)C)cc(Cl)nc32)[C@@H]1O` [Example 30, 2-benzyl-2-(((2R,3S,4R,5R)-5-(5-chloro-7-(isopropylamino)-3H-imidazo[4,5-b]pyridin-3-yl)-3-ethynyl-3,4-dihydroxytetrahydrofuran-2-yl)methoxy)malonic acid], for which the IC50 was 5 nM. With `C#C[C@@]1(O)[C@@H](COC(Cc2ccc(N3CCCNC3=O)cc2)(C(=O)O)C(=O)O)O[C@@H](n2cnc3c(NCC4CC4)nc(Cl)nc32)[C@@H]1O` [Example 136, 2-(((2R,3S,4R,5R)-5-(2-chloro-6-((cyclopropylmethyl)amino)-9H-purin-9-yl)-3-ethynyl-3,4-dihydroxytetrahydrofuran-2-yl)methoxy)-2-(4-(2-oxotetrahydropyrimidin-1(2H)-yl)benzyl)malonic acid], the half-maximal inhibitory concentration (IC50) was 0.24 nM. With `C#C[C@@]1(O)[C@@H](COC(Cc2ccccc2)(C(=O)O)C(=O)NC)O[C@@H](n2cnc3c(NCC4CC4)nc(Cl)nc32)[C@@H]1O` (stereo partly drawn) [Example 106, 2-benzyl-2-(((2R,3S,4R,5R)-5-(2-chloro-6-((cyclopropylmethyl)amino)-9H-purin-9-yl)-3-ethynyl-3,4-dihydroxytetrahydrofuran-2-yl)methoxy)-3-(methylamino)-3-oxopropanoic acid] the figure was 296 nM.
